Assay results as given in ChEMBL document CHEMBL5608191, “Structure-based discovery of novel piperidine-biphenyl-DAPY derivatives as non-nucleoside reverse transcriptase inhibitors featuring improved potency, safety, and selectivity: From piperazine-biphenyl-DAPYs to piperidine-biphenyl-DAPYs” (Eur J Med Chem, 2024).
One block for each molecule: values may come before it.

What was measured:
[1] = Cytotoxicity against human MT4 cells assessed as reduction in cell viability incubated for 5 days by MTT assay; format: toxicity, cell-based; conditions: time 5 day
[2] = test system: Human immunodeficiency virus 1; test: Antiviral activity against wild-type HIV-1 IIIB infected in human MT4 cells assessed as protection against virus-induced cytopathic effect incubated for 5 days by MTT assay; format: functional, organism-based; conditions: Human immunodeficiency virus 1, IIIB, MT4, 120 h
[3] = Selectivity index, ratio of CC50 for human MT4 cells to EC50 for wild-type HIV-1 IIIB infected in human MT4 cells; format: toxicity, cell-based; conditions: read-out: Ratio CC50/EC50
[4] = biological target: Human immunodeficiency virus type 1 reverse transcriptase (Human immunodeficiency virus 1, UniProt Q72547); test: Inhibition of recombinant wild-type HIV-1 reverse transcriptase incubated for 40 mins by fluorescence based assay
[5] = test system: Human immunodeficiency virus 1; test: Antiviral activity against HIV-1 harboring RT Y188L mutant infected in human MT4 cells assessed as protection against virus-induced cytopathic effect incubated for 5 days by MTT assay; format: functional, organism-based; conditions: Human immunodeficiency virus 1, MT4, 120 h
[6] = test system: Human immunodeficiency virus 1; test: Antiviral activity against HIV-1 harboring RT Y181C mutant infected in human MT4 cells assessed as protection against virus-induced cytopathic effect incubated for 5 days by MTT assay; format: functional, organism-based; conditions: Human immunodeficiency virus 1, MT4, 120 h
[7] = test system: Human immunodeficiency virus 1; test: Antiviral activity against HIV-1 harboring RT K103N mutant infected in human MT4 cells assessed as protection against virus-induced cytopathic effect incubated for 5 days by MTT assay; format: functional, organism-based; conditions: Human immunodeficiency virus 1, MT4, 120 h
[8] = test system: Human immunodeficiency virus 1; test: Antiviral activity against HIV-1 harboring RT L100I mutant infected in human MT4 cells assessed as protection against virus-induced cytopathic effect incubated for 5 days by MTT assay; format: functional, organism-based; conditions: Human immunodeficiency virus 1, MT4, 120 h
[9] = test system: Human immunodeficiency virus 1; test: Antiviral activity against HIV-1 harboring RT E138K mutant infected in human MT4 cells assessed as protection against virus-induced cytopathic effect incubated for 5 days by MTT assay; format: functional, organism-based; conditions: Human immunodeficiency virus 1, MT4, 120 h
[10] = Solubility of compound in phosphate buffer at pH 7 by HPLC analysis; format: physicochemical
[11] = Solubility of compound in phosphate buffer at pH 7.4 by HPLC analysis; format: physicochemical
[12] = Solubility of compound in phosphate buffer at pH 2 by HPLC analysis; format: physicochemical
[13] = Solubility of compound in water by HPLC analysis; format: physicochemical

Structure (SMILES): CCOC(=O)c1cnc(N2CCN(Cc3cccc(C(N)=O)c3)CC2)nc1Oc1c(C)cc(-c2ccc(C#N)cc2)cc1C
CC50 at 120 h [1]: 14800 nM
EC50 [2]: 3360 nM
selectivity ratio [3]: 4

Structure (SMILES): CCOC(=O)c1cnc(NC2CCN(Cc3ccc(F)cc3)CC2)nc1Oc1c(C)cc(-c2ccc(C#N)cc2)cc1C
EC50 [5]: 790 nM
EC50 [6]: 158 nM
EC50 [7]: 115 nM
EC50 [8]: 257 nM
IC50 [4]: 582 nM
CC50 at 120 h [1]: 185000 nM
EC50 [9]: 154 nM
EC50 [2]: 44 nM
selectivity ratio [3]: 4180

Structure (SMILES): CCOC(=O)c1cnc(NC2CCN(Cc3cccnc3)CC2)nc1Oc1c(C)cc(-c2ccc(C#N)cc2)cc1C
EC50 [5]: 431 nM
EC50 [6]: 99 nM
EC50 [7]: 53 nM
EC50 [8]: 272 nM
IC50 [4]: 718 nM
CC50 at 120 h [1]: > 222000 nM
EC50 [9]: 70 nM
EC50 [2]: 35 nM
selectivity ratio [3]: > 6430

Structure (SMILES): CCOC(=O)c1cnc(NC2CCN(Cc3cccc(C#N)c3)CC2)nc1Oc1c(C)cc(-c2ccc(C#N)cc2)cc1C
EC50 [5]: 389 nM
EC50 [6]: 134 nM
EC50 [7]: 65 nM
EC50 [8]: 342 nM
IC50 [4]: 530 nM
CC50 at 120 h [1]: 178000 nM
EC50 [9]: 81 nM
EC50 [2]: 36 nM
selectivity ratio [3]: 4960

Structure (SMILES): CCOC(=O)c1cnc(NC2CCN(Cc3ccncc3)CC2)nc1Oc1c(C)cc(-c2ccc(C#N)cc2)cc1C
EC50 [5]: 87 nM
EC50 [6]: 66 nM
EC50 [7]: 13 nM
EC50 [8]: 73 nM
IC50 [4]: 527 nM
CC50 at 120 h [1]: 60000 nM
EC50 [9]: 73 nM
EC50 [2]: 16 nM
selectivity ratio [3]: 3720

Structure (SMILES): CCOC(=O)c1cnc(NC2CCN(Cc3ccc(S(N)(=O)=O)cc3)CC2)nc1Oc1c(C)cc(-c2ccc(C#N)cc2)cc1C
EC50 [5]: 538 nM
EC50 [6]: 202 nM
EC50 [7]: 46 nM
EC50 [8]: 212 nM
IC50 [4]: 736 nM
CC50 at 120 h [1]: > 195000 nM
EC50 [9]: 83 nM
EC50 [2]: 35 nM
selectivity ratio [3]: > 5640

Structure (SMILES): CCOC(=O)c1cnc(NC2CCN(Cc3ccc(S(C)(=O)=O)cc3)CC2)nc1Oc1c(C)cc(-c2ccc(C#N)cc2)cc1C
EC50 [5]: 67 nM
EC50 [6]: 51 nM
EC50 [7]: 13 nM
EC50 [8]: 57 nM
IC50 [4]: 598 nM
CC50 at 120 h [1]: 27900 nM
EC50 [9]: 105 nM
EC50 [2]: 13 nM
selectivity ratio [3]: 2290

Structure (SMILES): CCOC(=O)c1cnc(NC2CCN(Cc3cccc(C(=O)NC)c3)CC2)nc1Oc1c(C)cc(-c2ccc(C#N)cc2)cc1C
EC50 [5]: 246 nM
EC50 [6]: 67 nM
EC50 [7]: 48 nM
EC50 [8]: 74 nM
IC50 [4]: 686 nM
CC50 at 120 h [1]: 20400 nM
EC50 [9]: 51 nM
EC50 [2]: 37 nM
selectivity ratio [3]: 556

Further lines, with some results ahead:

IC50 [4]: 769 nM
Structure (SMILES): CCOC(=O)c1cnc(NC2CCN(Cc3ccccc3F)CC2)nc1Oc1c(C)cc(-c2ccc(C#N)cc2)cc1C
CC50 at 120 h [1]: 189000 nM
EC50 [2]: 47 nM
selectivity ratio [3]: 4040

IC50 [4]: 314 nM
Structure (SMILES): CCOC(=O)c1cnc(NC2CCN(Cc3ccc(Cl)cc3)CC2)nc1Oc1c(C)cc(-c2ccc(C#N)cc2)cc1C
CC50 at 120 h [1]: 141000 nM
EC50 [2]: 194 nM
selectivity ratio [3]: 728

IC50 [4]: 782 nM
Structure (SMILES): CCOC(=O)c1cnc(NC2CCN(Cc3ccc(C#N)cc3)CC2)nc1Oc1c(C)cc(-c2ccc(C#N)cc2)cc1C
CC50 at 120 h [1]: 131000 nM
EC50 [2]: 217 nM
selectivity ratio [3]: 604

IC50 [4]: 535 nM
Structure (SMILES): CCOC(=O)c1cnc(NC2CCN(Cc3ccc(/C=C/C(=O)OC)cc3)CC2)nc1Oc1c(C)cc(-c2ccc(C#N)cc2)cc1C
CC50 at 120 h [1]: > 194000 nM
EC50 [2]: 79 nM
selectivity ratio [3]: > 2450

IC50 [4]: 622 nM
Structure (SMILES): CCOC(=O)c1cnc(NC2CCN(Cc3ccc(OC)cc3)CC2)nc1Oc1c(C)cc(-c2ccc(C#N)cc2)cc1C
CC50 at 120 h [1]: 125000 nM
EC50 [2]: 33 nM
selectivity ratio [3]: 3740

IC50 [4]: 327 nM
Structure (SMILES): CCOC(=O)c1cnc(NC2CCN(Cc3ccccc3C#N)CC2)nc1Oc1c(C)cc(-c2ccc(C#N)cc2)cc1C
CC50 at 120 h [1]: 196000 nM
EC50 [2]: 50 nM
selectivity ratio [3]: 3940

solubility [10]: < 1 µg/mL
solubility [11]: < 1 µg/mL
solubility [12]: 136 µg/mL
solubility [13]: 77.2 µg/mL
Structure (SMILES): CCOC(=O)c1cnc(NC2CCN(Cc3ccc(C(=O)NC)cc3)CC2)nc1Nc1c(C)cc(-c2ccc(C#N)cc2)cc1C.O=P(O)(O)O

IC50 [4]: 522 nM
Structure (SMILES): CCOC(=O)c1cnc(NC2CCN(Cc3ccc(F)c(F)c3)CC2)nc1Oc1c(C)cc(-c2ccc(C#N)cc2)cc1C
CC50 at 120 h [1]: 194000 nM
EC50 [2]: 201 nM
selectivity ratio [3]: 967

IC50 [4]: 890 nM
Structure (SMILES): CCOC(=O)c1cnc(NC2CCN(Cc3ccc(C)cc3)CC2)nc1Oc1c(C)cc(-c2ccc(C#N)cc2)cc1C
CC50 at 120 h [1]: 178000 nM
EC50 [2]: 35 nM
selectivity ratio [3]: 5080
